Assay results from ChEMBL document CHEMBL5500366, “Discovery of the small molecular inhibitors against sclerostin loop3 as potential anti-osteoporosis agents by structural based virtual screening and molecular design” (Eur J Med Chem, 2024).
Calls of active or inactive are those of the source. The rule behind the calls is not given here.

How the values were obtained:
[1] = target: T1, Sclerostin (Homo sapiens, UniProt Q9BQB4); experiment: Binding affinity to SOST (unknown origin) by SPR analysis
T1 sequence (Q9BQB4 whole entry): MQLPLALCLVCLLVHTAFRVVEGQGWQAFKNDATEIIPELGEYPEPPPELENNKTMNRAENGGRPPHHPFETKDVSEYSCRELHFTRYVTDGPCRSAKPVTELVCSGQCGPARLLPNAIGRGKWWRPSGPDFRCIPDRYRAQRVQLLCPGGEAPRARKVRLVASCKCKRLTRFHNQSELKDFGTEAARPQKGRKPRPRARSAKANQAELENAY

[2] = target: T1, Sclerostin; experiment: Binding affinity to SOST loop2 (unknown origin) by SPR analysis
[3] = target: T1, Sclerostin; experiment: Binding affinity to SOST loop3 (unknown origin) by SPR analysis
[4] = Half-life in sc dosed Sprague-Dawley rat; format: ADME, organism-based; conditions: in vivo
[5] = Cmax in sc dosed Sprague-Dawley rat; format: ADME, organism-based; conditions: in vivo
[6] = AUC in sc dosed Sprague-Dawley rat; format: ADME, organism-based; conditions: in vivo
[7] = species: Homo sapiens; experiment: Binding affinity to FABP (unknown origin)
[8] = target: Albumin (Homo sapiens, UniProt P02768); experiment: Binding affinity to human serum albumin; format: ADME; conditions: isolated protein
Sequence of Albumin (P02768 whole entry): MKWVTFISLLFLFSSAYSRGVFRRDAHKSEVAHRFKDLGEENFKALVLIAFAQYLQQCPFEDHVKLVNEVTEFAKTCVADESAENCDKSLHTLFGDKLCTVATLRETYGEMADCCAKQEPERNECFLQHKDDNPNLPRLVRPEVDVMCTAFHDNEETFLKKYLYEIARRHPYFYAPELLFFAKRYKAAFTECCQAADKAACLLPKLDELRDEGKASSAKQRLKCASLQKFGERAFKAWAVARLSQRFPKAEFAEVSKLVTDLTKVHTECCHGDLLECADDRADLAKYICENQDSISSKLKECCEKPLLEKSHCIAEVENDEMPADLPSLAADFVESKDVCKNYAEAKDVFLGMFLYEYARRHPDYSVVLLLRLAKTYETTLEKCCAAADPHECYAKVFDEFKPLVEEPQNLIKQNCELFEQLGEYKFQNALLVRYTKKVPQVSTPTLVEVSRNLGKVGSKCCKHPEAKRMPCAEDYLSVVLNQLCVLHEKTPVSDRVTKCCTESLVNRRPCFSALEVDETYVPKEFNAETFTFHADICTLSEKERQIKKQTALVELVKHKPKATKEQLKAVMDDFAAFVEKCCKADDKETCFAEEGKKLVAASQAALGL

SMILES | Kd [1] [nM] | Kd [2] [nM] | also measured
O=C1c2c(O)cc(O)cc2O[C@@H](c2cc(O)c(O)c(O)c2)[C@H]1O | 4780 | 3900 | –
Nc1nc2c(c(=O)[nH]1)NC(CNc1ccc(C(=O)N[C@@H](CCC(=O)O)C(=O)O)cc1)CN2 (some centres undefined) | 37.7 | – | Kd [3]: 42.4 nM
Oc1cc(O)c2c(c1)O[C@H](c1ccc(O)c(O)c1)[C@@H](O)C2 [CIANIDANOL] | 1580 | 1840 | –
O=c1ccc2ccccc2o1 [COUMARIN] | 273 | 231 | –
O=C1c2c(O)cc(O)cc2O[C@@H](c2ccc(O)c(O)c2)[C@H]1O [(+)-EPITAXIFOLIN] | 2630 | – | –
CC(=O)NCC#Cc1ccc(C(=O)NCC(=O)O)cc1 | – | – | half-life [4]: 1.94 h; Cmax [5]: 5.81 ng/mL; AUC [6]: 59.2 ng·h/mL; Activity [7]: inactive; Activity [8]: Not Active
